In patent US10100341B2, “Tailored oils produced from recombinant oleaginous microorganisms” (Corbion Biotech, Inc., priority 2011, dated 2018):

Legend:
Haematococcus pluvialis = details: 5 μM norflurazon; cited from earlier work
Prototheca moriformis = experiment: Growth in thiamine-free medium (thiamine auxotrophy complementation); format: cell-based; details: 2 μM precursor
Protocol: Thiamine prototrophy in Prototheca moriformis cells was examined using expression of exogenous THIC genes. […] To dissect the lesion responsible for thiamine auxotrophy at the biochemical level, the growth of Prototheca moriformis cells under five different regimes were examined:(1) in the presence of 2 μM thiamine hydrochloride; (2) without thiamine; (3) without thiamine, but with 2 μM hydroxyethyl thiazole (THZ); […] To observe the thiamine auxotrophy of wildtype Prototheca moriformis cells, it was necessary to first deplete cells of internal thiamine reserves. To test growth in medium without thiamine, cells were first grown to stationary phase in medium containing 2 μM thiamine and then the cells were diluted to an optical density at 750 nm (OD750) of approximately 0.05 in medium without thiamine. The diluted cells were then grown once more to stationary phase in medium without thiamine (about 2-3 days). These thiamine-depleted cells were used to inoculate cultures for growth studies in medium without thiamine Wildtype cells were grown in medium with glucose as the carbon source (with or without thiamine) and positive clones with the native transit peptide Coccomyxa C-169 THIC construct were grown in medium with sucrose as the sole carbon source. […]

Dunaliella tertiolecta = details: 1 mg/L phleomycin; cited from earlier work
[1] = tested on: Closterium peracerosum-strigosum-littorale complex; details: 3 ug/ml phleomycin; cited from earlier work
Volvox carteri = details: 1.5 ug/ml zeocin; cited from earlier work
[2] = tested on: Nannochloropsis sp. W2J3B; details: 2 ug/ml zeocin; cited from earlier work
Cylindrotheca fusiformis = details: 1 mg/ml zeocin; cited from earlier work
[3] = tested on: Phaeodactylum tricornutum; details: 50 ug/ml zeocin; cited from earlier work
Navicula saprophila = details: artificial seawater medium, 100 ug/ml G418; cited from earlier work
Cyclotella cryptica = details: 50% artificial seawater medium, 100 ug/ml G418; cited from earlier work
[4] = tested on: Symbiodinium microadriacticum; details: 3 mg/ml G418; cited from earlier work
Amphidinium sp. = details: 3 mg/ml G418; cited from earlier work
Chlorella ellipsoidea = details: 30 ug/mL G418; cited from earlier work
Thalassiosira pseudonana = details: 10 ug/ml nourseothricin; cited from earlier work
Chaetoceros sp. = details: 500 ug/ml nourseothricin; cited from earlier work
Gonium pectorale = details: 0.06 ug/ml paromomycin; cited from earlier work
[5] = tested on: Chlamydomonas reinhardtii; details: 90 ug/ml spectinomycin; cited from earlier work
Dunaliella salina = details: 60 mg/L chloramphenicol; cited from earlier work
[6] = tested on: Prototheca moriformis (UTEX 1435); experiment: Steady state thioesterase mRNA level by real-time RT-PCR (promoter testing, normalized to cd189); details: low nitrogen medium
[7] = tested on: Prototheca moriformis (UTEX 1435); experiment: cDNA abundance by real-time RT-PCR under nitrogen depletion; format: cell-based; details: after 24 hours of culture in low nitrogen medium
Protocol: A cDNA library was generated from Prototheca moriformis (UTEX 1435) using standard techniques. The Prototheca moriformis cells were grown for 48 hours under nitrogen replete conditions. […] After about 24 hours in culture, the nitrogen supply in the media was completely depleted. The collected samples were immediately frozen using dry ice and isopropanol. Total RNA was subsequently isolated from the frozen cell pellet samples and a portion from each sample was held in reserve for RT-PCR studies. The rest of the total RNA harvested from the samples was subjected to polyA selection. Equimolar amounts of polyA selected RNA from each condition was then pooled and used to generate a cDNA library in vector pcDNA 3.0 (Invitrogen). Roughly 1200 clones were randomly picked from the resulting pooled cDNA library and subjected to sequencing on both strands. Approximately 68 different cDNAs were selected from among these 1200 sequences and used to design cDNA-specific primers for use in real-time RT-PCR studies. RNA isolated from the cell pellet samples that were held in reserve was used as substrate in the real time RT-PCR studies using the cDNA-specific primer sets generated above. This reserved RNA was converted into cDNA and used as substrate for RT-PCR for each of the 68 gene specific primer sets. […] As discussed in the specification, nitrogen depletion/limitation is a known inducer of lipogenesis in oleaginous microorganisms. Fold increase refers to the fold increase in cDNA abundance after 24 hours of culture in low nitrogen medium.

## CNc1cnn(-c2cccc(C(F)(F)F)c2)c(=O)c1Cl [norflurazon]
Haematococcus pluvialis
  propagation of untransformed cells in medium comprising the agent: unable to propagate

## Cc1ncc(CN)c(N)n1 [PYR, 2-methyl-4-amino-5-(aminomethyl)pyrimidine]
Prototheca moriformis
  thiamine pyrophosphate production / growth without thiamine with precursor: can only produce thiamine pyrophosphate (TPP) if the PYR precursor is provided

## phleomycin
Dunaliella tertiolecta
  propagation of untransformed cells in medium comprising the agent: unable to be propagated
[1]
  propagation of untransformed cells in medium comprising the agent: unable to propagate

## Cc1c(N)nc([C@H](CC(N)=O)NC[C@H](N)C(N)=O)nc1C(=O)N[C@H](C(=O)N[C@H](C)[C@@H](O)[C@H](C)C(=O)N[C@H](C(=O)NCCC1=N[C@@H](c2nc(C(=O)NCCCCN=C(N)N)cs2)CS1)[C@@H](C)O)[C@@H](O[C@@H]1O[C@@H](CO)[C@@H](O)[C@H](O)[C@@H]1O[C@H]1O[C@H](CO)[C@@H](O)[C@H](OC(N)=O)[C@@H]1O)c1cnc[nH]1 [zeocin]
Volvox carteri
  propagation of untransformed cells in medium comprising the agent: unable to be propagated
[2]
  propagation of untransformed cells in medium comprising the agent: unable to propagate
Cylindrotheca fusiformis
  propagation of untransformed cells in medium comprising the agent: unable to propagate
[3]
  propagation of untransformed cells in medium comprising the agent: unable to propagate

## CN[C@@H]1[C@@H](O)[C@@H](O[C@@H]2[C@@H](O)[C@H](O[C@H]3O[C@H]([C@@H](C)O)[C@@H](O)[C@H](O)[C@H]3N)[C@@H](N)C[C@H]2N)OC[C@]1(C)O [G418]
Navicula saprophila
  propagation of untransformed cells in medium comprising the agent: unable to propagate
Cyclotella cryptica
  propagation of untransformed cells in medium comprising the agent: unable to propagate
[4]
  propagation of untransformed cells in medium comprising the agent: unable to be propagated
Amphidinium sp.
  propagation of untransformed cells in medium comprising the agent: unable to be propagated
Chlorella ellipsoidea
  propagation of untransformed cells in medium comprising the agent: unable to be propagated

## nourseothricin
Thalassiosira pseudonana
  propagation of untransformed cells in medium comprising the agent: unable to propagate
Chaetoceros sp.
  propagation of untransformed cells in medium comprising the agent: unable to propagate

## NC[C@@H]1O[C@H](O[C@H]2[C@@H](O)[C@H](O[C@@H]3[C@@H](O)[C@H](N)C[C@H](N)[C@H]3O[C@H]3O[C@H](CO)[C@@H](O)[C@H](O)[C@H]3N)O[C@@H]2CO)[C@H](N)[C@@H](O)[C@@H]1O [paromomycin]
Gonium pectorale
  propagation of untransformed cells in medium comprising the agent: unable to propagate

## CN[C@@H]1[C@H](O)[C@H](NC)[C@H]2O[C@@]3(O)C(=O)C[C@@H](C)O[C@H]3O[C@@H]2[C@H]1O [spectinomycin]
[5]
  propagation of untransformed cells in medium comprising the agent: unable to propagate

## O=C(N[C@H](CO)[C@H](O)c1ccc([N+](=O)[O-])cc1)C(Cl)Cl [chloramphenicol]
Dunaliella salina
  propagation of untransformed cells in medium comprising the agent: unable to propagate

B1: Amt02-Ammonium transporter 02 promoter/5′UTR: putative nitrogen-regulated promoter/5′UTR, SEQ ID NO: 61 (nucleic acid, listed as Prototheca moriformis)
DNA: TCACCAGCGGACAAAGCACCGGTGTATCAGGTCCGTGTCATCCACTCTAAAGAGCTCGACTACGACCTACTGATGGCCCTAGATTCTTCATCAAAAACGCCTGAGACACTTGCCCAGGATTGAAACTCCCTGAAGGGACCACCAGGGGCCCTGAGTTGTTCCTTCCCCCCGTGGCGAGCTGCCAGCCAGGCTGTACCTGTGATCGGGGCTGGCGGGAAAACAGGCTTCGTGTGCTCAGGTTATGGGAGGTGCAGGACAGCTCATTAAACGCCAACAATCGCACAATTCATGGCAAGCTAATCAGTTATTTCCCATTAACGAGCTATAATTGTCCCAAAATTCTGGTCTACCGGGGGTGATCCTTCGTGTACGGGCCCTTCCCTCAACCCTAGGTATGCGCACATGCGGTCGCCGCGCAACGCGCGCGAGGGCCGAGGGTTTGGGACGGGCCGTCCCGAAATGCAGTTGCACCCGGATGCGTGGCACCTTTTTTGCGATAATTTATGCAATGGACTGCTCTGCAAAATTCTGGCTCTGTCGCCAACCCTAGGATCAGCGGTGTAGGATTTCGTAATCATTCGTCCTGATGGGGAGCTACCGACTGCCCTAGTATCAGCCCGACTGCCTGACGCCAGCGTCCACTTTTGTGCACACATTCCATTCGTGCCCAAGACATTTCATTGTGGTGCGAAGCGTCCCCAGTTACGCTCACCTGATCCCCAACCTCCTTATTGTTCTGTCGACAGAGTGGGCCCAGAGGCCGGTCGCAGCC
[6]
  steady state C. camphora thioesterase mRNA level relative to control (C. reinhardtii beta tubulin promoter): up to three
[7]
  Fold increased (cDNA abundance): 10.76

B2: Aat04-Amino acid transporter 04 promoter/5′UTR: putative nitrogen-regulated promoter/5′UTR, SEQ ID NO: 65 (nucleic acid, listed as Prototheca moriformis)
DNA: CGCGTGGAGCGGTGCGTGCGGATGCCGCGCGCCTGCCAAGGCCTTTTGTATGCCTGGCCTGGGAAGTTTCCTGACTGAAGCATCTTCAAGATGCTCTCTCACGACCAGCGACACCAACACCGTCACTTTTTGCCCCTCCTGCCGCAGGTGCCACTTTCTACTTTGACGTCTTCTCCAGGCGGTACATTGCGGGACTGAGCGCCAATTCGGCCAAGAACAGCGCTGTCGACTTGAGGAGGCAGGGGTCCGTCGACTCTGCCGAGTGACACGCCTTCGACCCGACTGTACTACGGCCTGCTGAAGAGTGGGTCTCGCCGGCCGGCGTGACCGGCCCTGTGCCCACAATCGACCATCTATTCGCTCCTTGTCATCTGGCGCCGTCAATTGCCCGCGACTTGACGGCAACTGGCTCGATCGAGTCGTATTGAAAAAGCACGTTTTGTCCTACAGGGCCGCGGTCCGTTACCAACGTGGTTCTCGTTAGGTTTTCGTCGGGCGGTGGTGCGCGAACTGTCCGATGCCATCCCGGCAAACCCCAGCAAGGTCGCCAGTCTGGTTCTGACGCAATAGAGTGCGTTTTGGGCCAGTCTAAAAATTCGTCTGGCATGACGTGGCTCCACATCGTACCCGGAGCCTGCCTTGGTAATGTGAGGCACCGGTGCCAACTCCATTATGGCAGGCATCGAGCGCGCAGGTGAGTACATGACCTTCCGTGAATTGGGAAGGCGAGCTTGTGTAACGCCTGCGATCGTGCCAGTGAGGCATCGTAAACTCAAAATATTTTGTAGAAAGTGTCTGATGCCTGGTGAGGCTGCGTAGGGCAAGGGCAAGCCCTTGGCAGATGGGTAATGGGTCCGGACCTCACAACAGCAACCCCGCGTCCCCCTTAGGGCCCCTGAGGCTCGATGGCAGGGCCAGCGAGCCCGCGGCCAAAGGGCGCCATCCCACGGTCGCCCAACGACTCCACGGGTCCTATACCTCATCTTGAATGGCACTAAAAACTATAGAATATCGGGCACTGGTGGGCGTCTGGGGTACAGCTGGCCGAGCGCAGTGGCAAACCCTAGGTCCCGCCTCAAGGGCGATTCCCGGGTCAATGACACGCAAGCAAGATCACATGGCGCGGTCCGCCTCGCGGCTCCACACCCAGGCCCTAGTTTCGCAACCCATAAATATCGCCCCGATACCATCATAAGCCAGCAAATAATTTTTTATCAGAGTTCCAAACCTCCTCAGCTGTGGGAAACCAGCCCACTCTGAACG
[6]
  steady state C. camphora thioesterase mRNA level relative to control (C. reinhardtii beta tubulin promoter): up to five
[7]
  Fold increased (cDNA abundance): 10.95
